Results from ChEMBL document CHEMBL3885861, “Open TG-GATES”.

Species on record: Rattus norvegicus
Experiment: Open TG-GATES - Regimen: Single
Format: toxicity, organism-based, Sprague-Dawley
Set-up: regimen Single, gender Male, age 6 weeks
Conditions: in vivo, po, 50 mg/kg, route gavage, dose level Middle; for APTT / Bas / Eos / Fbg / Hb / Ht / Lym / MCH / MCHC / MCV / Mono / Neu / PT / Plat / RBC / Ret / WBC: tissue Blood; for KIDNEY_L / KIDNEY_R / KIDNEY_TOTAL: tissue Kidney; for LIVER: tissue Liver; for A/G / ALP / ALT / AST / BUN / CRE / Ca / Cl / DBIL / GLC / IP / K / LDH / Na / PL / RALB / TBIL / TC / TG / TP / gamma-GTP: tissue Plasma

Q: For `CC(C)C(=O)Nc1ccc([N+](=O)[O-])c(C(F)(F)F)c1` [FLUTAMIDE], which TERMINAL_BW (3 h) is on record?
A: 209.6 g

Q: And the APTT (3 h)?
A: 18.6 s

Q: What about the Bas (3 h) of the same compound?
A: 0%

Q: What about the Eos (3 h) of the same compound?
A: 1%

Q: And the Fbg (3 h)?
A: 216.6 mg/dL

Q: And the Hb (3 h)?
A: 13.4 g/dL

Q: What about the Ht (3 h) of the same compound?
A: 39.1%

Q: What about the Lym (3 h) of the same compound?
A: 73.6%

Q: And the MCH (3 h)?
A: 21.5 pg

Q: And the MCHC (3 h)?
A: 34.2%

Q: And the MCV (3 h)?
A: 63 fL

Q: What about the Mono (3 h) of the same compound?
A: 2.8%

Q: What about the Neu (3 h) of the same compound?
A: 21.4%

Q: And the PT (3 h)?
A: 12.7 s

Q: And the Plat (3 h)?
A: 136.9 x10_4/uL

Q: And the RBC (3 h)?
A: 621 x10_4/ul

Q: What about the Ret (3 h) of the same compound?
A: 7.8%

Q: What about the WBC (3 h) of the same compound?
A: 82.5 x10_2/uL

Q: What about the KIDNEY_L (3 h) of the same compound?
A: 0.9 g

Q: What about the KIDNEY_R (3 h) of the same compound?
A: 0.9 g

Q: And the KIDNEY_TOTAL (3 h)?
A: 1.8 g

Q: And the LIVER (3 h)?
A: 9.6 g

Q: What about the A/G (3 h) of the same compound?
A: 1.7

Q: What about the ALP (3 h) of the same compound?
A: 785.4 IU/L

Q: And the ALT (3 h)?
A: 35.8 IU/L

Q: What about the AST (3 h) of the same compound?
A: 64 IU/L

Q: What about the BUN (3 h) of the same compound?
A: 12 mg/dL

Q: What about the CRE (3 h) of the same compound?
A: 0.4 mg/dL

Q: What about the Ca (3 h) of the same compound?
A: 10.7 mg/dL

Q: And the Cl (3 h)?
A: 103.4 meq/L

Q: What about the DBIL (3 h) of the same compound?
A: 0.1 mg/dL

Q: And the GLC (3 h)?
A: 199.4 mg/dL

Q: What about the IP (3 h) of the same compound?
A: 9.9 mg/dL

Q: What about the K (3 h) of the same compound?
A: 4.1 meq/L

Q: What about the LDH (3 h) of the same compound?
A: 168.4 IU/L

Q: What about the Na (3 h) of the same compound?
A: 140 meq/L

Q: What about the PL (3 h) of the same compound?
A: 158.6 mg/dL

Q: What about the RALB (3 h) of the same compound?
A: 3.5 g/dL

Q: And the TBIL (3 h)?
A: 0.2 mg/dL

Q: And the TC (3 h)?
A: 80.2 mg/dL

Q: And the TG (3 h)?
A: 86.8 mg/dL

Q: What about the TP (3 h) of the same compound?
A: 5.6 g/dL

Q: What about the gamma-GTP (3 h) of the same compound?
A: 1.2 IU/L

Q: What about the TERMINAL_BW (6 h) of the same compound?
A: 209.1 g

Q: What about the APTT (6 h) of the same compound?
A: 18.9 s

Q: What about the Bas (6 h) of the same compound?
A: 0%

Q: And the Eos (6 h)?
A: 0.8%

Q: And the Fbg (6 h)?
A: 220.4 mg/dL

Q: And the Hb (6 h)?
A: 13.2 g/dL

Q: What about the Ht (6 h) of the same compound?
A: 38.3%

Q: What about the Lym (6 h) of the same compound?
A: 75%

Q: And the MCH (6 h)?
A: 21.8 pg

Q: And the MCHC (6 h)?
A: 34.6%

Q: What about the MCV (6 h) of the same compound?
A: 63 fL

Q: What about the Mono (6 h) of the same compound?
A: 3.4%

Q: And the Neu (6 h)?
A: 20.4%

Q: And the PT (6 h)?
A: 13 s

Q: And the Plat (6 h)?
A: 126.7 x10_4/uL

Q: And the RBC (6 h)?
A: 608.4 x10_4/ul

Q: And the Ret (6 h)?
A: 7.8%

Q: And the WBC (6 h)?
A: 89.5 x10_2/uL

Q: What about the KIDNEY_L (6 h) of the same compound?
A: 1 g

Q: What about the KIDNEY_R (6 h) of the same compound?
A: 0.9 g

Q: And the KIDNEY_TOTAL (6 h)?
A: 1.9 g

Q: And the LIVER (6 h)?
A: 8.9 g

Q: What about the A/G (6 h) of the same compound?
A: 1.6

Q: What about the ALP (6 h) of the same compound?
A: 921.6 IU/L

Q: What about the ALT (6 h) of the same compound?
A: 33.4 IU/L

Q: What about the AST (6 h) of the same compound?
A: 68.2 IU/L

Q: And the BUN (6 h)?
A: 7.6 mg/dL

Q: What about the CRE (6 h) of the same compound?
A: 0.4 mg/dL

Q: What about the Ca (6 h) of the same compound?
A: 10.6 mg/dL

Q: What about the Cl (6 h) of the same compound?
A: 101.6 meq/L

Q: What about the DBIL (6 h) of the same compound?
A: 0.082 mg/dL

Q: What about the GLC (6 h) of the same compound?
A: 196 mg/dL

Q: What about the IP (6 h) of the same compound?
A: 9.9 mg/dL

Q: What about the K (6 h) of the same compound?
A: 3.9 meq/L

Q: What about the LDH (6 h) of the same compound?
A: 129.2 IU/L

Q: And the Na (6 h)?
A: 140 meq/L

Q: What about the PL (6 h) of the same compound?
A: 140.8 mg/dL

Q: And the RALB (6 h)?
A: 3.4 g/dL

Q: What about the TBIL (6 h) of the same compound?
A: 0.1 mg/dL

Q: And the TC (6 h)?
A: 79.6 mg/dL

Q: And the TG (6 h)?
A: 40.2 mg/dL

Q: And the TP (6 h)?
A: 5.5 g/dL

Q: What about the gamma-GTP (6 h) of the same compound?
A: 1.2 IU/L

Q: And the TERMINAL_BW (9 h)?
A: 207.5 g

Q: And the APTT (9 h)?
A: 18.7 s

Q: And the Bas (9 h)?
A: 0%

Q: What about the Eos (9 h) of the same compound?
A: 1%

Q: What about the Fbg (9 h) of the same compound?
A: 227 mg/dL

Q: And the Hb (9 h)?
A: 13.1 g/dL

Q: What about the Ht (9 h) of the same compound?
A: 38.6%

Q: What about the Lym (9 h) of the same compound?
A: 76.6%

Q: What about the MCH (9 h) of the same compound?
A: 21.9 pg

Q: And the MCHC (9 h)?
A: 34.1%

Q: What about the MCV (9 h) of the same compound?
A: 64.3 fL

Q: What about the Mono (9 h) of the same compound?
A: 3%

Q: And the Neu (9 h)?
A: 18.6%

Q: What about the PT (9 h) of the same compound?
A: 13 s

Q: What about the Plat (9 h) of the same compound?
A: 135.1 x10_4/uL

Q: And the RBC (9 h)?
A: 601.2 x10_4/ul

Q: And the Ret (9 h)?
A: 8.2%

Q: What about the WBC (9 h) of the same compound?
A: 75 x10_2/uL

Q: And the KIDNEY_L (9 h)?
A: 0.9 g

Q: And the KIDNEY_R (9 h)?
A: 0.9 g

Q: And the KIDNEY_TOTAL (9 h)?
A: 1.8 g

Q: And the LIVER (9 h)?
A: 8.6 g

Q: What about the A/G (9 h) of the same compound?
A: 1.7

Q: And the ALP (9 h)?
A: 922.4 IU/L

Q: And the ALT (9 h)?
A: 30.2 IU/L

Q: What about the AST (9 h) of the same compound?
A: 61.2 IU/L

Q: What about the BUN (9 h) of the same compound?
A: 9.8 mg/dL

Q: What about the CRE (9 h) of the same compound?
A: 0.3 mg/dL

Q: What about the Ca (9 h) of the same compound?
A: 10.3 mg/dL

Q: What about the Cl (9 h) of the same compound?
A: 103.8 meq/L

Q: What about the DBIL (9 h) of the same compound?
A: 0.088 mg/dL

Q: What about the GLC (9 h) of the same compound?
A: 207.4 mg/dL

Q: What about the IP (9 h) of the same compound?
A: 9.9 mg/dL

Q: What about the K (9 h) of the same compound?
A: 3.8 meq/L

Q: What about the LDH (9 h) of the same compound?
A: 123.2 IU/L

Q: And the Na (9 h)?
A: 140.6 meq/L

Q: What about the PL (9 h) of the same compound?
A: 153.2 mg/dL

Q: What about the RALB (9 h) of the same compound?
A: 3.4 g/dL

Q: And the TBIL (9 h)?
A: 0.2 mg/dL

Q: And the TC (9 h)?
A: 81.2 mg/dL

Q: What about the TG (9 h) of the same compound?
A: 53.6 mg/dL

Q: What about the TP (9 h) of the same compound?
A: 5.4 g/dL

Q: What about the gamma-GTP (9 h) of the same compound?
A: 1.2 IU/L

Q: And the TERMINAL_BW (24 h)?
A: 216.8 g

Q: What about the APTT (24 h) of the same compound?
A: 18.2 s

Q: And the Bas (24 h)?
A: 0%

Q: What about the Eos (24 h) of the same compound?
A: 1%

Q: What about the Fbg (24 h) of the same compound?
A: 209.6 mg/dL

Q: And the Hb (24 h)?
A: 13.7 g/dL

Q: What about the Ht (24 h) of the same compound?
A: 40.6%

Q: And the Lym (24 h)?
A: 77.6%

Q: What about the MCH (24 h) of the same compound?
A: 21.6 pg

Q: What about the MCHC (24 h) of the same compound?
A: 33.8%

Q: And the MCV (24 h)?
A: 63.7 fL

Q: What about the Mono (24 h) of the same compound?
A: 3.2%

Q: What about the Neu (24 h) of the same compound?
A: 17%

Q: What about the PT (24 h) of the same compound?
A: 12.9 s

Q: And the Plat (24 h)?
A: 132.9 x10_4/uL

Q: And the RBC (24 h)?
A: 637 x10_4/ul

Q: What about the Ret (24 h) of the same compound?
A: 6.7%

Q: And the WBC (24 h)?
A: 93 x10_2/uL

Q: And the KIDNEY_L (24 h)?
A: 0.9 g

Q: What about the KIDNEY_R (24 h) of the same compound?
A: 0.9 g

Q: And the KIDNEY_TOTAL (24 h)?
A: 1.8 g

Q: And the LIVER (24 h)?
A: 10.5 g

Q: And the A/G (24 h)?
A: 1.5

Q: And the ALP (24 h)?
A: 950.6 IU/L

Q: What about the ALT (24 h) of the same compound?
A: 38.2 IU/L

Q: And the AST (24 h)?
A: 65.8 IU/L

Q: And the BUN (24 h)?
A: 16 mg/dL

Q: What about the CRE (24 h) of the same compound?
A: 0.4 mg/dL

Q: And the Ca (24 h)?
A: 10.5 mg/dL

Q: And the Cl (24 h)?
A: 103.2 meq/L

Q: What about the DBIL (24 h) of the same compound?
A: 0.1 mg/dL

Q: What about the GLC (24 h) of the same compound?
A: 203.4 mg/dL

Q: And the IP (24 h)?
A: 6.8 mg/dL

Q: And the K (24 h)?
A: 3.8 meq/L

Q: What about the LDH (24 h) of the same compound?
A: 145.2 IU/L

Q: And the Na (24 h)?
A: 140.6 meq/L

Q: What about the PL (24 h) of the same compound?
A: 141.2 mg/dL

Q: And the RALB (24 h)?
A: 3.4 g/dL

Q: What about the TBIL (24 h) of the same compound?
A: 0.2 mg/dL

Q: And the TC (24 h)?
A: 80 mg/dL

Q: What about the TG (24 h) of the same compound?
A: 83.4 mg/dL

Q: And the TP (24 h)?
A: 5.7 g/dL

Q: What about the gamma-GTP (24 h) of the same compound?
A: 1 IU/L
